The source of these data is publication PMC6154319, “Intestinal Transport Characteristics and Metabolism of C-Glucosyl Dihydrochalcone, Aspalathin” (Molecules : A Journal of Synthetic Chemistry and Natural …, 2017).

The structures appear in SMILES notation. Marks after values point to notes of the source that are not given here.

In one series the test system is Caco-2 monolayer. The series is described as follows: in vitro. As to the method:
Validation of the Caco-2 transport experiments required consideration of three parameters, i.e., firstly, to determine the cytotoxic concentrations of synthetic aspalathin, secondly, the concentration of aspalathin required to ensure HPLC detection in the basolateral compartment, and finally, to assess whether the transport of aspalathin is concentration dependent.
Cells were cultured at 37 °C and 5% CO2 in 95% humidified air in Eagle’s Minimum Essential Medium (EMEM) containing sodium […] pyruvate, supplemented with 2 mM L-glutamine, 1% non-essential amino acids and 10% heat inactivated FBS. Cell cultures were split when 70%–80% confluent, using trypsin/ethylenediaminetetraacetic acid (EDTA). The culture medium, pre-warmed to 37 °C, was refreshed every 2–3 days. Cells were seeded at 1 × 10^4 cells/cm^2 and a sub-cultivation ratio of 1:3 was routinely used. Cells were seeded with the addition of 1% penicillin/streptomycin mixture (10,000 units/mL potassium penicillin and 10,000 µg/mL streptomycin sulphate) at 4 × 10^4 cells/cm^2 onto 0.4 µm polycarbonate 6-well inserts with an insert area of 4.52 cm^2. Cells were used for transport experiments when TEER values across wells were >300 Ω, typically 21–23 days post confluence. Only passages 50–60 were used to prevent phenotypic drift.
The cell monolayers were equilibrated briefly with transport buffer, pH 6.0 (HBSS with 2-(N-morpholino) ethanesulphonic acid (MES)) on the apical side and pH 7.4 (HBSS with HEPES) on the basolateral side, to remove traces of the culture media. Following this, transport buffers were added for 30 min prior to the addition of treatment (inhibitors were added during this step when required, as well as during the subsequent treatment incubation step). After equilibration, the plates containing transport medium were incubated for 30 min at 37 °C at 5% CO2 in 95% humidified air and the TEER value of the monolayer determined. […] For basolateral-to-apical compartment studies, 2.4 mL of treatment at the same concentrations in HBSS (pH 7.4), was added to the basolateral compartment.
To assess whether aspalathin was co-transported with glucose, its transport (100 µM) at both high (20.5 mM) and low (5.5 mM) glucose concentrations, mimicking the intestinal lumen glucose concentrations pre- and post-meals, was monitored. This was followed by experiments performed in the presence and absence of SGLT1 (100 µM phloridzin), GLUT2 (100 µM phloretin) and efflux, PgP (100 µM verapamil) inhibitors.
Samples (1.2 mL) were withdrawn from the basolateral or the apical compartment to measure the concentration of aspalathin uptake and efflux, respectively at 0, 0.5, 1, 1.5, and 2 h under sink conditions (the sample aliquot replaced with equal volume of relevant transport buffer). Sample aliquots (350 µL) were frozen in liquid nitrogen after the addition of ascorbic acid (35 µL of 10% solution) and stored at −65 °C until HPLC analysis. Results were corrected for dilution and expressed as cumulative transport (% of initial dose) as a function of time. Papp (cm/s) for bi-directional transport studies was calculated as previously described. Transport of other major flavonoids in the matrices, i.e., nothofagin, the 3-deoxy analogue of aspalathin and its flavone derivatives, orientin and isoorientin, were also determined.
Lucifer yellow (final concentration 0.1 mM) was used as a membrane integrity marker and co-incubated with the compounds and extracts.
HPLC-DAD analysis of samples from the apical and basolateral compartments was performed in duplicate on an Agilent 1200 system as previously described. Basolateral and apical samples taken after 2 h with pure aspalathin were also analysed using LC-MS (parameters described in [42]) to determine whether aspalathin metabolites were formed in the Caco-2 model.
All experiments were performed in triplicate and the data expressed as mean ± SD, unless otherwise indicated.

For the next series, the target named is T1, GLUT2 (Homo sapiens, UniProt P11168).
T1 sequence (P11168 1-524): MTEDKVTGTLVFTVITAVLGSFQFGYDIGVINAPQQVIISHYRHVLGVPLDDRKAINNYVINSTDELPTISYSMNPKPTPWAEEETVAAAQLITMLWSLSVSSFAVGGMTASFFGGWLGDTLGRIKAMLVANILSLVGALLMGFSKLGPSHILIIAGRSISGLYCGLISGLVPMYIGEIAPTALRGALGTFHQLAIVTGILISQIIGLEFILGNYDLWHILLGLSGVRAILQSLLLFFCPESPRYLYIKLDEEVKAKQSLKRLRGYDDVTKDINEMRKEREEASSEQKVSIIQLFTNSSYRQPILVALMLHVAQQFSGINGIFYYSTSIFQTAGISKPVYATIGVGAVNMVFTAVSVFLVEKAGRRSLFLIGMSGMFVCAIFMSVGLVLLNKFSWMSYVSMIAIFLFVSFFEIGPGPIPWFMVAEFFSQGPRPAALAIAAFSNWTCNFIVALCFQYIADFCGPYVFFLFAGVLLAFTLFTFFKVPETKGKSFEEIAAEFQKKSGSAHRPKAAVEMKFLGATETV
The settings on record: aspalathin 100 µM; 100 µM phloretin (GLUT2).

Regarding `O=C(CCc1ccc(O)c(O)c1)c1c(O)cc(O)c([C@@H]2O[C@H](CO)[C@@H](O)[C@H](O)[C@H]2O)c1O` [Aspalathin], in the series with Caco-2 monolayer (Caco-2), the “Papp a-b with high glucose” value is on record as 2.90 ± 0.75 × 10^−7 cm/s, the “Papp a-b − Inhibitor” value is on record as 1.73 ± 0.97 ×10^−6 cm/s, the Papp b-a was 2.15 ± 0.23 × 10^—6 cm/s and the “Papp b-a − Inhibitor” value is listed as 2.09 ± 0.23 ×10^−6 cm/s. For the same compound, the “Papp (cm/s) a-b × 10^−6” value in the series on Caco-2 monolayer (buffered solution of synthetic aspalathin, 1 µM) is listed as 2.28 ± 0.09 cm/s × 10^−6. In the series with Caco-2 monolayer (from aspalathin-enriched green rooibos extract SB1, 0.38 mg/mL (153, 11, 17, 9 µM aspalathin, nothofagin, isoorientin, orientin)), the “Papp (cm/s) a-b × 10^−6” value was found to be 2.00 ± 1.10 cm/s × 10^−6. Also, the “Papp (cm/s) a-b × 10^−6” value in the series with Caco-2 monolayer (from semi-purified fraction PEF1, 0.15 mg/mL (149, 21, 12, 8 µM aspalathin, nothofagin, isoorientin, orientin)) is reported as 2.11 ± 0.20 cm/s × 10^−6. Further, on GLUT2, the “Papp a-b + Inhibitor (phloretin)” value was 1.67 ± 0.43 ^c ×10^−6 cm/s and the “Papp b-a + Inhibitor (phloretin)” value is on record as 1.95 ± 1.1 ^c ×10^−6 cm/s.
